Measured values published in patent US20230085307A1, “PYRIDAZINONE COMPOUND AND HERBICIDE” (NISSAN CHEMICAL CORPORATION, priority 2019, published 2023).

Assays:
rice flat sedge = assay: Test Example 3: herbicidal effect by foliage application, Wagner pot (Table 18, symbol E); type: in vivo, rice flat sedge (Cyperus iria); conditions: 320 g/ha
Method in brief: (§1)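 Plants were sown in alluvial soil held under 0.1–0.5 cm standing water and grown 14 days in a greenhouse at 25–30 °C. An emulsifiable formulation, water-diluted to the set dose, was then sprayed onto the foliage, and effects were scored three weeks later using previously defined criteria.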

late watergrass [1] = assay: Test Example 1: herbicidal activity, application before weed generation under submerged conditions (Table 16, symbol A); type: in vivo, late watergrass (Echinochloa oryzicola); conditions: 320 g/ha applied herbicide
Method in brief: (§2)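 Emulsion formulation, water-diluted to set dose, was put onto the flooded surface (4 cm depth, alluvial soil) the same day weeds were sown and 2.5-leaf rice transplanted. After 3 weeks at 25-30 °C under glass, each species was rated 0 (≤5% kill) to 5 (≥90% kill).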

Japanese bulrush [2] = assay: Test Example 1: herbicidal activity, application before weed generation under submerged conditions (Table 16, symbol B); type: in vivo, Japanese bulrush (Schoenoplectus juncoides); conditions: 320 g/ha applied herbicide
Method in brief: as §2

barnyard grass = assay: Test Example 3: herbicidal effect by foliage application, Wagner pot (Table 18, symbol H); type: in vivo, barnyard grass (Echinochloa crus-galli); conditions: 320 g/ha
Method in brief: as §1

Chinese sprangletop = assay: Test Example 3: herbicidal effect by foliage application, Wagner pot (Table 18, symbol D); type: in vivo, chinese sprangletop (Leptochloa chinensis); conditions: 320 g/ha
Method in brief: as §1

oval-leafed pondweed [3] = assay: Test Example 1: herbicidal activity, application before weed generation under submerged conditions (Table 16, symbol C); type: in vivo, oval-leafed pondweed (Monochoria vaginalis); conditions: 320 g/ha applied herbicide
Method in brief: as §2

oval-leafed pondweed [4] = assay: Test Example 2: herbicidal activity, application during weed generation under submerged conditions (Table 17, symbol C); type: in vivo, oval-leafed pondweed (Monochoria vaginalis); conditions: AAH 320 g/ha; application during weed generation, submerged conditions
Method in brief: (§3)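 Effect on each weed is rated three weeks post-treatment, using the same scoring criteria as the preceding test. Plants grow from mixed-sown seed in flooded alluvial soil (4 cm water) at 25° C. to 30° C., and are treated at one to two leaves with diluted emulsion dropped onto the water.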

late watergrass [5] = assay: Test Example 2: herbicidal activity, application during weed generation under submerged conditions (Table 17, symbol A); type: in vivo, late watergrass (Echinochloa oryzicola); conditions: AAH 320 g/ha; application during weed generation, submerged conditions
Method in brief: as §3

Japanese bulrush [6] = assay: Test Example 2: herbicidal activity, application during weed generation under submerged conditions (Table 17, symbol B); type: in vivo, Japanese bulrush (Schoenoplectus juncoides); conditions: AAH 320 g/ha; application during weed generation, submerged conditions
Method in brief: as §3

For `Cc1nn(C)c(=O)c(-c2c(-c3ccc(OCCOC(C)C)cc3)sc3ccccc23)c1O` [1-226], which “herbicidal effect on E (rice flat sedge), rating 0-5” value (rice flat sedge) is on record?
The value was 4 (Herbicidal rate of 70% or more and less than 90%).

And the “Herbicidal effect on A: late watergrass (grade 0-5)” value (late watergrass [1])?
The value was 5 (Herbicidal rate of 90% or more (almost completely withered)).

And the “Herbicidal effect on B: Japanese bulrush (grade 0-5)” value (Japanese bulrush [2])?
Its value is 4 (Herbicidal rate of 70% or more and less than 90%).

And the “herbicidal effect on H (barnyard grass), rating 0-5” value (barnyard grass)?
The value was 5 (Herbicidal rate of 90% or more (almost completely withered)).

What about the “herbicidal effect on D (Chinese sprangletop), rating 0-5” value (Chinese sprangletop) of the same compound?
The value was 5 (Herbicidal rate of 90% or more (almost completely withered)).

And the “Herbicidal effect on C: oval-leafed pondweed (grade 0-5)” value (oval-leafed pondweed [3])?
The value was 4 (Herbicidal rate of 70% or more and less than 90%).

What about the “herbicidal effect rating, C: oval-leafed pondweed” value (oval-leafed pondweed [4]) of the same compound?
Its value is 3 (Herbicidal rate of 40% or more and less than 70%).

What about the “herbicidal effect rating, A: late watergrass” value (late watergrass [5]) of the same compound?
The value was 5 (Herbicidal rate of 90% or more (almost completely withered)).

And the “herbicidal effect rating, B: Japanese bulrush” value (Japanese bulrush [6])?
Its value is 3 (Herbicidal rate of 40% or more and less than 70%).
